Consider three compounds from patent US7858608B2, “Bile acid derivatives as FXR ligands for the prevention or treatment of FXR-mediated diseases or conditions” (Intercept Pharmaceuticals, Inc., priority 2006, dated 2010).

The structures appear in SMILES notation. Like-named read-outs stand apart in the source and are kept apart here.

The subject of data set [1] is FXR regulated genes (SHP, CYP7α1, SREPB-1c, FAS, BSEP). The following applies: human, 18 h, 10 μM. From the text: Human hepatocyte cell line HepG2 was used for these studies.
The effects of these ligands on FXR responsive genes was then investigated by quantitative reverse transcription PCR (qRT-PCR).

The subject of the next data set is HepG2 cells. The data set is described as follows: Direct cell toxicity on exposure of HepG2 cells. In kind it is cell-based, human. The note with it: HepG2 cells exposed to the ligands.
Data set [2] addresses T1, FXR (Homo sapiens, UniProt Q96RI1).
T1 sequence (Q96RI1 1-486): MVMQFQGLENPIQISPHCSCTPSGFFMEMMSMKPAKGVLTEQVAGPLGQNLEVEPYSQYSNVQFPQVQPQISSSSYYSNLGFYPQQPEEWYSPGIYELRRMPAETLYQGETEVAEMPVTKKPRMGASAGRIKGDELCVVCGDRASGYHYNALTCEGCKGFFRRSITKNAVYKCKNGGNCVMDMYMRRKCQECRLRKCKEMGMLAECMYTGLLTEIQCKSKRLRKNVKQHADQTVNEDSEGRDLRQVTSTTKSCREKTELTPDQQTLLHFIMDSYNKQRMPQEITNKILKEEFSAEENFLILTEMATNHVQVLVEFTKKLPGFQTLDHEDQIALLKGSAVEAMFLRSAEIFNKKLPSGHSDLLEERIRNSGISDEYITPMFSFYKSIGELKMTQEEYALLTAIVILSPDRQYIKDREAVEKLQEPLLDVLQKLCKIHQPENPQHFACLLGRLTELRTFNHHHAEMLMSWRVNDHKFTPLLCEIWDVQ
As to the kind of experiment: Cell-free FRET assay, recruitment of the SRC1 peptide to FXR. The following applies: for Potency in activating FXR relative to CDCA (concentration for Scr-1 recruitment lower than CDCA): cell-free FRET assay, versus CDCA. In kind it is biochemical. From the text: This technology, a cell free assay, is described in […]., et al. J Med Chem. 2002 15; 45:3569-72).

Data set [3] relates to FXR or other nuclear receptors. The data set is described as follows: Liver cells transfected with viral constructs carrying FXR or other nuclear receptors upstream of the luciferase gene. In kind it is cell-based. The following applies: mouse, rat, and human hepatocytes, luciferase reporter.
The target in data set [4] is T1, FXR. As to the kind of experiment: Cell transfection (transactivation) assay in HepG2 cell line. The arrangement: expressed in transfected cells; host or cells: HepG2. The note with it: HepG2 cells, 1 μM. In kind it is cell-based. The method, then: It was also evaluated if compound (Ia) modulated FXR-regulated genes in a cellular assay using a human hepatocyte cell line (HepG2). […] A detailed description of these methods can be found in the following reference: Fiorucci S., et al. Gastroenterology 2004.

For `C[C@H](CCC(=O)O)[C@H]1CC[C@H]2[C@@H]3[C@H](O)C[C@@H]4C[C@H](O)CC[C@]4(C)[C@H]3CC[C@]12C` [CDCA, chenodeoxycholic acid, reference compound], in data set [1], the “Induction of SHP expression” value is 2-3 fold and the “Reduction of the expression of CYP7α1 mRNA” value is recorded as 60-70%. For the same compound, the Direct cell toxicity result with HepG2 cells is reported as “no direct cell toxicity”.

Consider `CC[C@H]1[C@@H](O)[C@@H]2[C@H](CC[C@]3(C)[C@@H]([C@H](C)CCC(=O)O)CC[C@@H]23)[C@@]2(C)CC[C@@H](O)C[C@@H]12` [Compound 6-ECDCA, 6-ethyl-chenodeoxycholic acid], for which the Direct cell toxicity result in the data set with HepG2 cells was “no direct cell toxicity”.

For the compound `C[C@H](CCNC(=O)OC/C=C/c1ccccc1)[C@H]1CCC2C3C(CC[C@@]21C)[C@@]1(C)CC[C@@H](O)CC1C[C@H]3O` (stereo partly drawn) [Compound (Ia), 23-N-Carbacinnamyloxy-3α,7α-dihydroxy-5β-norcholanylamine], the melting point (in general, the temperature of the solid-liquid transition) was 79 to 84 °C. Further, the “Efficacy (relative recruitment of the SRC1 peptide to FXR where CDCA = 100%)” value at FXR [2] (FRET, human FXR, mean ± SE, n = 4) stood at 66%. Moreover, the EC50 (in general, the midpoint of the concentration-response curve) on FXR [2] (FRET, human FXR, mean ± SE, n = 4, read-out: Cell-Free Assay EC50) came to 592 nM. Besides, the “Potency in activating FXR relative to CDCA (concentration for Scr-1 recruitment lower than CDCA)” value at FXR [2] is “approximately 20 fold”. The “Potency in activating FXR relative to CDCA (concentration for Scr-1 recruitment lower than CDCA)” value on FXR [2] (listed as compound (Ia)) was roughly 20 fold. Besides, the half-maximal effective concentration (EC50) on FXR [2] (concentrations ranging from 1 nM to 100 μM, read-out: EC50 as FXR ligand in cell free FRET assay (Table 2 summary)) is roughly 500 nM. The “Selectivity for FXR over other nuclear receptors” value in data set [3] was “selective FXR ligand”. Besides, the “Induction of BSEP mRNA expression” value in data set [1] was “approximately 13 fold”. Besides, the Direct cell toxicity result with HepG2 cells is “no direct cell toxicity”. In addition, the “Transactivation of FXR” value on FXR [4] is reported as “transactivation”. For the same compound, at FXR [4] (listed as compound (Ia)), the “Transactivation of FXR” value is “transactivates FXR”.
